# Source: patent publication US20240279202A1 (NURIX THERAPEUTICS, INC., priority 2021, published 2024)
# Biological target: T1, ITK (Mus musculus, UniProt Q03526)
# T1 construct: mice were sacrificed and splenocytes were isolated and used to prepare protein lysates; from tissue; host or cells: mouse splenocytes (spleen) after oral dosing
# T1 sequence (Q03526 1-625): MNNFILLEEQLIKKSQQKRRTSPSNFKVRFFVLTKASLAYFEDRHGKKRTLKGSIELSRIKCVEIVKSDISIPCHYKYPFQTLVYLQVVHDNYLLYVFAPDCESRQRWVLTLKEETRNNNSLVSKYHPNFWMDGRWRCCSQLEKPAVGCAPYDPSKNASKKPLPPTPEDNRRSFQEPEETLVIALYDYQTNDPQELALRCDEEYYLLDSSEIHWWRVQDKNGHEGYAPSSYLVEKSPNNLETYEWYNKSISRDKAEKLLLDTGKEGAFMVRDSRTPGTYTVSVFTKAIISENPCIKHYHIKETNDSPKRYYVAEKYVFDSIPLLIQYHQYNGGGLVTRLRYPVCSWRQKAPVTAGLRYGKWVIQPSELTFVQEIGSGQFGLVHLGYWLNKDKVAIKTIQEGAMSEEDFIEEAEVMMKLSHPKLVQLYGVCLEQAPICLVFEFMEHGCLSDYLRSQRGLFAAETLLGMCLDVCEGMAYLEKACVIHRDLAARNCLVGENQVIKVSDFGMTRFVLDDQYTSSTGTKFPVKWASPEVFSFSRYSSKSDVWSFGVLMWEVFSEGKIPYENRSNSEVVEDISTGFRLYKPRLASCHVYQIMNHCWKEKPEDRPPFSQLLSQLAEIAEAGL
# Assay: Mouse PD assay for ITK degradation (Western blot, splenocytes after oral administration)
# Format: in vivo
# Conditions: for ITK (%) 90 mpk PO, 6 h: percent ITK remaining in mouse splenocytes relative to vehicle
# Method in brief: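 Mice dosed orally, some compounds at 90 mg/kg; splenocytes harvested after 6 hours (some 24 hours). ITK measured by Western blot of equal-protein lysates, normalized to actin. Values are % ITK remaining relative to vehicle-control mean.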
# [1] = mice, oral, splenocytes, Western blot, 6 hours
SMILES,"ITK degradation in vivo at 6 hours (FIG. 3A, FIG. 4A) [1]","ITK (%) 90 mpk PO, 6 h [%]","ITK degradation in vivo at 6 hours (FIG. 2) (mice, 90 mg/kg PO, splenocytes, Western blot, 6 hours)","ITK degradation in vivo at 24 hours (FIG. 3A, FIG. 4A) (mice, oral, splenocytes, Western blot, 24 hours)"
"Cn1c(=O)n(C2CCC(=O)NC2=O)c2ccc(N3CCC(CN4CCC5(CC4)CCN(c4ccc6cc(-c7n[nH]c8c7CCC(C)(C)C8)[nH]c6c4)C5=O)CC3)cc21 (stereo not shown) [Compound 14, 3-(5-(4-((2-(2-(6,6-dimethyl-4,5,6,7-tetrahydro-1H-indazol-3-yl)-1H-indol-6-yl)-1-oxo-2,8-diazaspiro[4.5]decan-8-yl)methyl)piperidin-1-yl)-3-methyl-2-oxo-2,3-dihydro-1H-benzo[d]imidazol-1-yl)piperidine-2,6-dione]",degraded ITK in vivo,47,–,–
"C[C@@H](C(=O)N(C)c1ccc2cc(-c3n[nH]c4c3CCC(C)(C)C4)[nH]c2c1)N1CCN(CC2CCN(c3ccc(C4CCC(=O)NC4=O)cn3)CC2)CC1 (stereo partly drawn) [Compound 10, (2S)—N-(2-(6,6-dimethyl-4,5,6,7-tetrahydro-1H-indazol-3-yl)-1H-indol-6-yl)-2(4-((1-(5-(2,6-dioxopiperidin-3-yl)pyridin-2-yl)piperidin-4-yl)methyl)piperazin-1-yl)-N-methylpropanamide]",degraded ITK in vivo,11,–,–
"C[C@@H](C(=O)N(C)c1ccc2cc(-c3n[nH]c4c3CCC(C)(C)C4)[nH]c2c1)N1CCN(C[C@H]2CCN(c3ccc4c(c3)CN(C3CCC(=O)NC3=O)C4=O)C2)CC1 (stereo partly drawn) [Compound 12, (2S)—N-(2-(6,6-dimethyl-4,5,6,7-tetrahydro-1H-indazol-3-yl)-1H-indol-6-yl)-2-(4-(((3R)-1-(2-(2,6-dioxopiperidin-3-yl)-1-oxoisoindolin-5-yl)pyrrolidin-3-yl)methyl)piperazin-1-yl)-N-methylpropanamide]",degraded ITK in vivo,82,–,–
"CN(C(=O)CCN1CCN(c2ccc3c(c2)C(=O)N(C2CCC(=O)NC2=O)C3=O)CC1)c1ccc2cc(-c3n[nH]c4c3CCC(C)(C)C4)[nH]c2c1 (stereo not shown) [Compound 2, N-(2-(6,6-dimethyl-4,5,6,7-tetrahydro-1H-indazol-3-yl)-1H-indol-6-yl)-3-(4-(2-(2,6-dioxopiperidin-3-yl)-1,3-dioxoisoindolin-5-yl)piperazin-1-yl)-N-methylpropanamide]",–,49.3,–,–
"C[C@@H](C(=O)N(C)c1ccc2cc(-c3n[nH]c4c3CCC(C)(C)C4)[nH]c2c1)N1CCN(C(=O)C2CN(C3CCN(c4ccc5c(c4)C(=O)N(C4CCC(=O)NC4=O)C5=O)CC3)C2)CC1 (stereo partly drawn) [Compound 34, (2S)—N-(2-(6,6-dimethyl-4,5,6,7-tetrahydro-1H-indazol-3-yl)-1H-indol-6-yl)-2-(4-(1-(1-(2-(2,6-dioxopiperidin-3-yl)-1,3-dioxoisoindolin-5-yl)piperidin-4-yl)azetidine-3-carbonyl)piperazin-1-yl)-N-methylpropanamide]",–,108,–,–
"C[C@@]12Cc3[nH]nc(C(=O)Nc4cnn(CC5CN(C(=O)C6CN(c7ccc(C8CCC(=O)NC8=O)cn7)C6)C5)c4)c3C[C@@H]1C2(F)F (stereo partly drawn) [Compound 49, (4aS,5aR)-N-(1-((1-(1-(5-(2,6-dioxopiperidin-3-yl)pyridin-2-yl)azetidine-3-carbonyl)azetidin-3-yl)methyl)-1H-pyrazol-4-yl)-5,5-difluoro-5a-methyl-1,4,4a,5,5a,6-hexahydrocyclopropa[f]indazole-3-carboxamide]",–,129,–,–
"C[C@@]12Cc3[nH]nc(C(=O)Nc4cnn(CC5CN(C(=O)C6CN(c7ccc8c(c7)C(=O)N(C7CCC(=O)NC7=O)C8=O)C6)C5)c4)c3C[C@@H]1C2(F)F (stereo partly drawn) [Compound 43, (4aS,5aR)-N-(1-((1-(1-(2-(2,6-dioxopiperidin-3-yl)-1,3-dioxoisoindolin-5-yl)azetidine-3-carbonyl)azetidin-3-yl)methyl)-1H-pyrazol-4-yl)-5,5-difluoro-5a-methyl-1,4,4a,5,5a,6-hexahydrocyclopropa[f]indazole-3-carboxamide]",degraded ITK in vivo,7,–,–
"C[C@@]12Cc3[nH]nc(C(=O)Nc4cnn(CC5CN(C[C@H]6CCN(c7ccc8c(c7)C(=O)N(C7CCC(=O)NC7=O)C8=O)C6)C5)c4)c3C[C@@H]1C2(F)F (stereo partly drawn) [Compound 44, (4aS,5aR)-N-(1-((1-(((3R)-1-(2-(2,6-dioxopiperidin-3-yl)-1,3-dioxoisoindolin-5-yl)pyrrolidin-3-yl)methyl)azetidin-3-yl)methyl)-1H-pyrazol-4-yl)-5,5-difluoro-5a-methyl-1,4,4a,5,5a,6-hexahydrocyclopropa[f]indazole-3-carboxamide]",degraded ITK in vivo,75,–,–
"Cn1c(=O)n([C@@H]2CCC(=O)NC2=O)c2cccc(N3CCC(CN4CCN(C(=O)c5ccc6cc(-c7n[nH]c8c7CCC(C)(C)C8)[nH]c6c5)CC4)CC3)c21 [Compound 48, (R)-3-(4-(4-((4-(2-(6,6-dimethyl-4,5,6,7-tetrahydro-1H-indazol-3-yl)-1H-indole-6-carbonyl)piperazin-1-yl)methyl)piperidin-1-yl)-3-methyl-2-oxo-2,3-dihydro-1H-benzo[d]imidazol-1-yl)piperidine-2,6-dione]",–,35,–,–
"CN(C(=O)CN1CCC2(CC1)CCN(c1ccc3c(c1)C(=O)N(C1CCC(=O)NC1=O)C3=O)C2)c1ccc2cc(-c3n[nH]c4c3C[C@@H]3C(F)(F)[C@]3(C)C4)[nH]c2c1 (stereo partly drawn) [Compound 72, N-(2-((4aS,5aR)-5,5-difluoro-5a-methyl-1,4,4a,5,5a,6-hexahydrocyclopropa[f]indazol-3-yl)-1H-indol-6-yl)-2-(2-(2-(2,6-dioxopiperidin-3-yl)-1,3-dioxoisoindolin-5-yl)-2,8-diazaspiro[4.5]decan-8-yl)-N-methylacetamide]",–,116,–,–
"CN(C(=O)CCC1CCN(c2ccc3c(c2)C(=O)N(C2CCC(=O)NC2=O)C3=O)C1)c1ccc2cc(-c3n[nH]c4c3CCC(C)(C)C4)[nH]c2c1 (stereo not shown) [Compound 1, N-(2-(6,6-dimethyl-4,5,6,7-tetrahydro-1H-indazol-3-yl)-1H-indol-6-yl)-3-(1-(2-(2,6-dioxopiperidin-3-yl)-1,3-dioxoisoindolin-5-yl)pyrrolidin-3-yl)-N-methylpropanamide]",–,153,degraded ITK in vivo,–
"C[C@@H](C(=O)N(C)c1ccc2cc(-c3n[nH]c4c3C[C@@H]3C(F)(F)[C@]3(C)C4)[nH]c2c1)N1CCN(CC2CCN(c3ccc(C4CCC(=O)NC4=O)cn3)CC2)CC1 (stereo partly drawn) [Compound 17, (2S)—N-(2-((4aS,5aR)-5,5-difluoro-5a-methyl-1,4,4a,5,5a,6-hexahydrocyclopropa[f]indazol-3-yl)-1H-indol-6-yl)-2-(4-((1-(5-(2,6-dioxopiperidin-3-yl)pyridin-2-yl)piperidin-4-yl)methyl)piperazin-1-yl)-N-methylpropanamide]",degraded ITK in vivo,20,–,degraded ITK
"C[C@@H](C(=O)N(C)c1ccc2cc(-c3n[nH]c4c3CCC(C)(C)C4)[nH]c2c1)N1CCN(C[C@H]2CCN(c3ccc4c(c3)n(C)c(=O)n4C3CCC(=O)NC3=O)C2)CC1 (stereo partly drawn) [Compound 5, (2S)—N-(2-(6,6-dimethyl-4,5,6,7-tetrahydro-1H-indazol-3-yl)-1H-indol-6-yl)-2-(4-(((3R)-1-(1-(2,6-dioxopiperidin-3-yl)-3-methyl-2-oxo-2,3-dihydro-1H-benzo[d]imidazol-5-yl)pyrrolidin-3-yl)methyl)piperazin-1-yl)-N-methylpropanamide]",degraded ITK in vivo,97,–,–
